ChEMBL document CHEMBL1201862, “PubChem BioAssay data set” (2004)
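Tested at 5 concentrations; 48 h exposure; 96-well plates; endpoints linearly interpolated, else capped at highest concentration. GI50 marks 50% less growth.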 Active and inactive are the calls of the source. No stated cut-off is given here; in the data, active = GI50 up to about 1.1 µM and inactive = higher.

Assays:
Test in all cases: NCI-60 cell line screen, 48 h
MCF7 = tested on: MCF7
RPMI-8226 = tested on: RPMI-8226
HCC 2998 = tested on: HCC 2998
MOLT-4 = tested on: MOLT-4
HOP-62 = tested on: HOP-62
T47D = tested on: T47D
K562 = tested on: K562
MDA-MB-435 = tested on: MDA-MB-435
OVCAR-3 = tested on: OVCAR-3
U-251 = tested on: U-251
HL-60 = tested on: HL-60
PC-3 = tested on: PC-3
SF-539 = tested on: SF-539
SF-268 = tested on: SF-268
NCI-H522 = tested on: NCI-H522
LOX IMVI = tested on: LOX IMVI
SK-OV-3 = tested on: SK-OV-3
EKVX = tested on: EKVX
NCI-H460 = tested on: NCI-H460
HOP-92 = tested on: HOP-92

Compound: CC(=O)NNC1=NN(C(C)=O)C2(S1)C(=O)Nc1ccccc12 (centres undefined)
- GI50 (MCF7): > 100 µM (inactive)
- GI50 (RPMI-8226): > 100 µM (inactive)
- GI50 (HCC 2998): > 100 µM (inactive)
- GI50 (MOLT-4): > 100 µM (inactive)
- GI50 (HOP-62): > 100 µM (inactive)
- GI50 (T47D): > 100 µM (inactive)
- GI50 (K562): > 100 µM (inactive)
- GI50 (MDA-MB-435): > 100 µM (inactive)
- GI50 (OVCAR-3): > 100 µM (inactive)
- GI50 (U-251): > 100 µM (inactive)
- GI50 (HL-60): 97.5 µM (inactive)
- GI50 (PC-3): 45 µM (inactive)
- GI50 (SF-539): > 100 µM (inactive)
- GI50 (SF-268): > 100 µM (inactive)
- GI50 (NCI-H522): > 100 µM (inactive)
- GI50 (LOX IMVI): > 100 µM (inactive)
- GI50 (SK-OV-3): > 100 µM (inactive)
- GI50 (EKVX): > 100 µM (inactive)
- GI50 (NCI-H460): > 100 µM (inactive)

Compound: CCCCCCOc1ccc(NC2=C(Cl)C(=O)c3cccnc3C2=O)cc1
- GI50 (MCF7): 1.21 µM (inactive)
- GI50 (RPMI-8226): 0.684 µM (active)
- GI50 (HCC 2998): 1.56 µM (inactive)
- GI50 (MOLT-4): 1.87 µM (inactive)
- GI50 (HOP-62): 2.17 µM (inactive)
- GI50 (T47D): 1.62 µM (inactive)
- GI50 (K562): 1.39 µM (inactive)
- GI50 (MDA-MB-435): 1.75 µM (inactive)
- GI50 (OVCAR-3): 1.35 µM (inactive)
- GI50 (U-251): 2.29 µM (inactive)
- GI50 (HL-60): 1.15 µM (inactive)
- GI50 (PC-3): 2.41 µM (inactive)
- GI50 (SF-539): 2.09 µM (inactive)
- GI50 (SF-268): 2.11 µM (inactive)
- GI50 (HOP-92): 2.02 µM (inactive)
- GI50 (LOX IMVI): 1.36 µM (inactive)
- GI50 (SK-OV-3): 4.35 µM (inactive)
- GI50 (EKVX): 1.67 µM (inactive)
- GI50 (NCI-H460): 1.79 µM (inactive)

Compound: Cc1ccc(NC(=S)C#N)cc1Cl
- GI50 (MCF7): 56.2 µM (inactive)
- GI50 (RPMI-8226): 6.79 µM (inactive)
- GI50 (HCC 2998): 24.3 µM (inactive)
- GI50 (MOLT-4): 32.8 µM (inactive)
- GI50 (HOP-62): 49.1 µM (inactive)
- GI50 (T47D): 32.4 µM (inactive)
- GI50 (K562): 39.3 µM (inactive)
- GI50 (MDA-MB-435): 41.8 µM (inactive)
- GI50 (OVCAR-3): 21.5 µM (inactive)
- GI50 (U-251): 55.8 µM (inactive)
- GI50 (PC-3): 43.4 µM (inactive)
- GI50 (SF-539): 24.2 µM (inactive)
- GI50 (SF-268): 36.9 µM (inactive)
- GI50 (HOP-92): 13.4 µM (inactive)
- GI50 (LOX IMVI): 42.3 µM (inactive)
- GI50 (SK-OV-3): 26.5 µM (inactive)
- GI50 (EKVX): 42.2 µM (inactive)

Compound: CO[C@H]1O[C@@H]2OC3(C)CCC4[C@H](C)CCC([C@H]1C)[C@]42OO3 (some centres undefined)
- GI50 (RPMI-8226): 12.1 µM (inactive)
- GI50 (HCC 2998): > 100 µM (inactive)
- GI50 (MOLT-4): 36.6 µM (inactive)
- GI50 (HOP-62): > 100 µM (inactive)
- GI50 (T47D): 91.6 µM (inactive)
- GI50 (K562): 26.5 µM (inactive)
- GI50 (MDA-MB-435): > 100 µM (inactive)
- GI50 (OVCAR-3): 78.9 µM (inactive)
- GI50 (U-251): > 100 µM (inactive)
- GI50 (HL-60): 1.32 µM (inactive)
- GI50 (PC-3): 76 µM (inactive)
- GI50 (SF-539): > 100 µM (inactive)
- GI50 (SF-268): > 100 µM (inactive)
- GI50 (NCI-H522): > 100 µM (inactive)
- GI50 (HOP-92): > 100 µM (inactive)
- GI50 (LOX IMVI): > 100 µM (inactive)
- GI50 (SK-OV-3): > 100 µM (inactive)
- GI50 (EKVX): > 100 µM (inactive)
- GI50 (NCI-H460): > 100 µM (inactive)
